Results reported in patent publication US20200131669A1, “CYCLIC PEPTIDE COMPOUND HAVING HIGH MEMBRANE PERMEABILITY, AND LIBRARY CONTAINING SAME” (Chugai Seiyaku Kabushiki Kaisha, priority 2017, published 2020).
Starred links: 1 amine or outer side, 2 acyl side, 3 side chain; linkers in the order of their positions; H or OH if unused. Positions of bridges follow the written chain, without caps; N, C: chain ends. Non-standard residues stand in square brackets, D forms with d. Residues, ends and D or L forms follow the SMILES beside them. *: point of attachment. X6 = CN([C@@H](CCN1CCC(F)(F)CC1)C(=O)[*:2])[*:1]; Glu(NHSO2Me) = CS(=O)(=O)NC(=O)CC[C@H](N)C(=O)O; Phe(4-CF3) = N[C@@H](Cc1ccc(C(F)(F)F)cc1)C(=O)O; NMeAla(4-thiazolyl) = CN[C@@H](Cc1cscn1)C(=O)O; 3Pal(6-NMe2) = CN(C)c1ccc(C[C@H](N)C(=O)O)cn1; NMePhe(3-Cl) = CN[C@@H](Cc1cccc(Cl)c1)C(=O)O; X14 = O=C([C@H](CCc1ccccc1Cl)N[*:1])[*:2]; hNle(7,7-F2) = N[C@@H](CCCCC(F)F)C(=O)O; NMehPhe = CN[C@@H](CCc1ccccc1)C(=O)O; hhPhe = N[C@@H](CCCc1ccccc1)C(=O)O; NMeF = CN[C@@H](Cc1ccccc1)C(=O)O; NMeGABA = CN(CCCC(=O)[*:2])[*:1]; NMeI = CC[C@H](C)[C@H](NC)C(=O)O; Butyl(3-Me,3-OH) = CC(C)(O)CC*; NMeD = CN[C@@H](CC(=O)O)C(=O)O; NMeL = CN[C@@H](CC(C)C)C(=O)O; NMeV = CN[C@H](C(=O)O)C(C)C; NMeAbu = CC[C@H](NC)C(=O)O; NMeA = CN[C@@H](C)C(=O)O; Piperidide = C1CCN(*)CC1; Me2NCH2CH2 = CN(C)CC*; NBuGly = CCCCNCC(=O)O; Isopentyl = CC(C)CC*; Ethyl(2-OH) = OCC*; Sar = CNCC(=O)O; tBu = CC(C)(C)*

Test: Caco-2 membrane permeability, improved method as used in the following Examples (96-well, 20 to 24 h preincubation)
Format: in vitro ADME
Settings: Caco-2, Caco-2
Method in brief: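 Papp (cm/sec) was derived from LC/MS of basal samples collected 180 min after apical dosing in FaSSIF/HBSS pH 6.0 with 1% DMSO, against a basal HBSS pH 7.4 receiver containing 4% BSA. Three-week Caco-2 cultures were first preincubated with compound in DMEM+FaSSIF at 37 °C for 20–24 h.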

Row | Structure (SMILES) | Papp A→B [×10⁻⁶ cm/s]
1 | CC(C)C[C@H]1C(=O)N[C@@H](CCCc2ccccc2)C(=O)N(C)[C@@H](Cc2ccccc2)C(=O)N(C)[C@@H](C(C)C)C(=O)N[C@H](C(=O)N2CCCCC2)CC(=O)N[C@H](C)C(=O)N(C)[C@@H](Cc2ccccc2)C(=O)N[C@@H](C(C)C)C(=O)N(C)[C@@H](CC(C)C)C(=O)N[C@@H]([C@@H](C)O)C(=O)N(C)CC(=O)N1C [pd364] ([dA][NMeF]V[NMeL]T[Sar][NMeL][hhPhe][NMeF][NMeV]D-Piperidide; lactam N-11) | 1
2 | CC(C)C[C@@H]1NC(=O)[C@H](CCc2ccccc2)N(C)C(=O)[C@@H](C(C)C)NC(=O)C[C@@H](C(=O)N2CCCCC2)NC(=O)[C@H](CC(C)C)N(C)C(=O)[C@H](Cc2ccccc2)N(C)C(=O)[C@H](COCCC(C)(C)O)NC(=O)[C@H](CC(C)C)N(C)C(=O)CN(C)C(=O)[C@H]([C@@H](C)O)NC(=O)[C@H](CC(C)C)N(C)C1=O [pd438] ([dV][NMehPhe]L[NMeL]T[Sar][NMeL]S(Butyl(3-Me,3-OH))[NMeF][NMeL]D-Piperidide; lactam N-11) | 1

Same assay, conditions: human, Caco-2, Caco-2

Row | Structure (SMILES) | Papp A→B at 180 min [×10⁻⁶ cm/s]
3 | CC[C@H](C)[C@@H]1NC(=O)[C@H](Cc2ccccc2)N(C)C(=O)CN(C)C(=O)C[C@@H](C(=O)N2CCCCC2)NC(=O)[C@H](C(C)C)N(C)C(=O)[C@H](CCc2ccccc2Cl)NC(=O)[C@H](CC(C)C)N(C)C(=O)[C@H](CC(C)C)N(C)C(=O)CN(C)C(=O)[C@H]([C@@H](C)O)NC(=O)[C@H](CC(C)C)N(C)C1=O [pd354] ([Sar][NMeF]I[NMeL]T[Sar][NMeL][NMeL][X14][NMeV]D-Piperidide; lactam N-11) | 1.5
4 | CCCCN1CC(=O)N(C)[C@@H](Cc2ccccc2)C(=O)N[C@@H](CCC(=O)NS(C)(=O)=O)C(=O)N(C)[C@@H](CC(C)C)C(=O)N[C@@H]([C@@H](C)O)C(=O)N(CCCC)CC(=O)N(C)[C@@H](Cc2ccccc2)C(=O)N(C)[C@@H](CC(C)C)C(=O)N[C@@H](CC(C)C)C(=O)N(C)[C@@H](CC(C)C)C(=O)N[C@H](C(=O)N2CCCCC2)CC1=O [pd65] ([NBuGly][NMeF][Glu(NHSO2Me)][NMeL]T[NBuGly][NMeF][NMeL]L[NMeL]D-Piperidide; lactam N-11) | 0.06
5 | CCCCN1CC(=O)N(C)[C@@H](CC(C)C)C(=O)N[C@@H](Cc2ccc(N(C)C)nc2)C(=O)N(C)[C@@H](CC(C)C)C(=O)N[C@@H]([C@@H](C)O)C(=O)N(C)CC(=O)N(C)[C@@H](Cc2ccccc2)C(=O)N(C)[C@@H](CC(C)C)C(=O)N[C@@H](COCCC(C)C)C(=O)N(C)[C@@H](C)C(=O)N[C@H](C(=O)N2CCCCC2)CC1=O [pd402] ([NBuGly][NMeL][3Pal(6-NMe2)][NMeL]T[Sar][NMeF][NMeL]S(Isopentyl)[NMeA]D-Piperidide; lactam N-11) | 1
6 | CC(C)C[C@@H]1NC(=O)[C@H](C)N(C)C(=O)C[C@@H](C(=O)N2CCCCC2)NC(=O)[C@H](CC(C)C)N(C)C(=O)CN(C)C(=O)[C@H]([C@@H](C)O)NC(=O)[C@H](CC(C)C)N(C)C(=O)[C@H](CCc2ccccc2)N(C)C(=O)[C@H](CC(C)C)NC(=O)[C@H](Cc2ccccc2)N(C)C(=O)[C@H](CC(C)C)N(C)C1=O [pd323] ([NMeA]L[NMeL][NMeF]L[NMehPhe][NMeL]T[Sar][NMeL]D-Piperidide; lactam N-11) | 2.3
7 | CCCCN1CC(=O)N(C)[C@@H](Cc2ccccc2)C(=O)N[C@@H](COCCN(C)C)C(=O)N(C)[C@@H](CC(C)C)C(=O)N[C@@H]([C@@H](C)O)C(=O)N(C)CC(=O)N(C)[C@@H](Cc2ccccc2)C(=O)N(C)[C@@H](CC)C(=O)N[C@@H](COCCC(C)C)C(=O)N(C)[C@@H](CC(C)C)C(=O)N[C@H](C(=O)N2CCCCC2)CC1=O [pd58] ([NBuGly][NMeF]S(Me2NCH2CH2)[NMeL]T[Sar][NMeF][NMeAbu]S(Isopentyl)[NMeL]D-Piperidide; lactam N-11) | 0.021
8 | CCCCN1CC(=O)N(C)[C@@H](Cc2ccccc2)C(=O)N[C@@H](CC(C)C)C(=O)N(C)[C@@H](CC(C)C)C(=O)N[C@@H]([C@@H](C)O)C(=O)N(C)CC(=O)N(C)[C@@H](Cc2ccccc2)C(=O)N(C)[C@@H](CCN2CCC(F)(F)CC2)C(=O)N[C@@H](CC(C)C)C(=O)N(C)[C@@H](C(C)C)C(=O)N[C@H](C(=O)N2CCCCC2)CC1=O [pd395] ([NBuGly][NMeF]L[NMeL]T[Sar][NMeF][X6]L[NMeV]D-Piperidide; lactam N-11) | 1.7
9 | CC[C@H](C)[C@@H]1NC(=O)[C@H](CC(C)C)N(C)C(=O)CCCN(C)C(=O)C[C@@H](C(=O)N2CCCCC2)NC(=O)[C@H](CC(C)C)N(C)C(=O)[C@H](C)N(C)C(=O)[C@H]([C@@H](C)O)NC(=O)[C@H](CC(C)C)N(C)C(=O)[C@H](CCCCC(F)F)NC(=O)[C@H](Cc2ccccc2)N(C)C(=O)[C@H](Cc2ccccc2)N(C)C1=O [pd333] ([NMeGABA][NMeL]I[NMeF][NMeF][hNle(7,7-F2)][NMeL]T[NMeA][NMeL]D-Piperidide; lactam N-11) | 1.3
10 | CC(C)C[C@@H]1NC(=O)[C@H](Cc2ccccc2)N(C)C(=O)[C@H](C)N(C)C(=O)C[C@@H](C(=O)N2CCCCC2)NC(=O)[C@H](CC(C)C)N(C)C(=O)[C@H](CC(C)C)N(C)C(=O)[C@H](COC(C)(C)C)NC(=O)[C@H](CC(C)C)N(C)C(=O)[C@H](C)N(C)C(=O)[C@H](CCC(=O)N(C)C)NC(=O)[C@H](CC(C)C)N(C)C1=O [pd440] ([NMeA][NMeF]L[NMeL]E(NMe2)[NMeA][NMeL]S(tBu)[NMeL][NMeL]D-Piperidide; lactam N-11) | 4
11 | CC[C@H](C)[C@H]1C(=O)N[C@@H](COCCO)C(=O)N(C)CC(=O)N(C)[C@@H](CC(C)C)C(=O)N[C@H](C(=O)N2CCCCC2)CC(=O)N(C)[C@@H](C)C(=O)N[C@@H](CC(C)C)C(=O)N(C)[C@@H](CC(C)C)C(=O)N(C)[C@@H](Cc2ccccc2)C(=O)N[C@@H](CC(C)C)C(=O)N(C)[C@@H](Cc2ccccc2)C(=O)N1C [pd499] ([NMeA]L[NMeL][NMeF]L[NMeF][NMeI]S(Ethyl(2-OH))[Sar][NMeL]D-Piperidide; lactam N-11) | 4.7

Same assay, conditions: human, Caco-2, Caco-2 (cm/sec)

Row | Structure (SMILES) | Papp A→B at 180 min [×10⁻⁶ cm/s]
12 | CC(C)C[C@@H]1NC(=O)C[C@@H](C(=O)N2CCCCC2)N(C)C(=O)[C@H](Cc2ccc(C(F)(F)F)cc2)NC(=O)[C@H](CC(C)C)N(C)C(=O)CN(C)C(=O)[C@H]([C@@H](C)O)NC(=O)[C@H](CC(C)C)N(C)C(=O)[C@H](CC(C)C)N(C)C1=O [pd151] (L[NMeL][NMeL]T[Sar][NMeL][Phe(4-CF3)][NMeD]-Piperidide; lactam N-8) | 3.2
13 | CC(C)C[C@@H]1NC(=O)[C@H](Cc2ccccc2)N(C)C(=O)[C@@H](C(C)C)NC(=O)C[C@@H](C(=O)N2CCCCC2)NC(=O)[C@H](Cc2ccccc2)N(C)C(=O)[C@H](Cc2ccccc2)N(C)C(=O)[C@H](COC(C)(C)C)NC(=O)[C@H](CC(C)C)N(C)C(=O)CN(C)C(=O)[C@H]([C@@H](C)O)NC(=O)[C@H](CC(C)C)N(C)C1=O [pd215] ([dV][NMeF]L[NMeL]T[Sar][NMeL]S(tBu)[NMeF][NMeF]D-Piperidide; lactam N-11) | 1.2
14 | CC[C@H](C)[C@H]1C(=O)N[C@@H](Cc2c[nH]c3ccccc23)C(=O)N(C)CC(=O)N(C)[C@@H](C)C(=O)N[C@H](C(=O)N2CCCCC2)CC(=O)N(C)[C@@H](C)C(=O)N[C@@H](CC(C)C)C(=O)N(C)[C@@H](CC(C)C)C(=O)N(C)[C@@H](CC(C)C)C(=O)N[C@@H](C)C(=O)N(C)[C@@H](CC(C)C)C(=O)N1C [pd101] ([NMeA]L[NMeL][NMeL]A[NMeL][NMeI]W[Sar][NMeA]D-Piperidide; lactam N-11) | 0.13
15 | CC(C)C[C@H]1C(=O)N[C@@H](COC(C)(C)C)C(=O)N(C)[C@@H](Cc2ccccc2)C(=O)N(C)[C@@H](C)C(=O)N[C@H](C(=O)N2CCCCC2)CC(=O)N[C@H](C(C)C)C(=O)N(C)[C@@H](Cc2ccccc2)C(=O)N[C@@H](CCCc2ccccc2)C(=O)N(C)[C@@H](CC(C)C)C(=O)N[C@@H]([C@@H](C)O)C(=O)N(C)CC(=O)N1C [pd192] ([dV][NMeF][hhPhe][NMeL]T[Sar][NMeL]S(tBu)[NMeF][NMeA]D-Piperidide; lactam N-11) | 1.1
16 | CC(C)C[C@H]1C(=O)N[C@@H](COC(C)(C)C)C(=O)N(C)[C@@H](Cc2ccccc2)C(=O)N(C)[C@@H](CC(C)C)C(=O)N(C)[C@H](C(=O)N2CCCCC2)CC(=O)N[C@@H](C)C(=O)N(C)[C@@H](Cc2cccc(Cl)c2)C(=O)N[C@@H](C(C)C)C(=O)N(C)[C@@H](C(C)C)C(=O)N[C@@H]([C@@H](C)O)C(=O)N(C)CC(=O)N1C [pd160] (A[NMePhe(3-Cl)]V[NMeV]T[Sar][NMeL]S(tBu)[NMeF][NMeL][NMeD]-Piperidide; lactam N-11) | 3.4
17 | CC(C)C[C@@H]1NC(=O)[C@H](Cc2ccccc2)N(C)C(=O)[C@H](C)N(C)C(=O)C[C@@H](C(=O)N2CCCCC2)NC(=O)[C@H](CC(C)C)N(C)C(=O)[C@H](Cc2ccccc2)N(C)C(=O)[C@H](Cc2ccccc2)NC(=O)[C@H](Cc2cscn2)N(C)C(=O)[C@H](C)N(C)C(=O)[C@H]([C@@H](C)O)NC(=O)[C@H](CC(C)C)N(C)C1=O [pd226] ([NMeA][NMeF]L[NMeL]T[NMeA][NMeAla(4-thiazolyl)]F[NMeF][NMeL]D-Piperidide; lactam N-11) | 0.68
18 | CC(C)C[C@H]1C(=O)N[C@@H](COC(C)(C)C)C(=O)N(C)[C@@H](Cc2ccccc2)C(=O)N(C)[C@@H](CC(C)C)C(=O)N[C@H](C(=O)N2CCCCC2)CC(=O)N[C@H](C(C)C)C(=O)N(C)[C@@H](Cc2ccccc2)C(=O)N[C@@H](C(C)C)C(=O)N(C)[C@@H](Cc2ccccc2)C(=O)N[C@@H]([C@@H](C)O)C(=O)N(C)CC(=O)N1C [pd210] ([dV][NMeF]V[NMeF]T[Sar][NMeL]S(tBu)[NMeF][NMeL]D-Piperidide; lactam N-11) | 1.6
